According to patent US20240383831A1, “ALKOXYLATION OF CANNABIDIOL AND OTHER CANNABINOIDS” (Indorama Ventures Oxides LLC, priority 2021, published 2024):

How the values were obtained:
Format in all cases: physicochemical
[1] = Water solubility of e-CBD compounds, 5 wt % actives in water
Source text: (§1) The alkoxylated product that results from the above reaction conditions can be characterized using common analytical techniques, including hydroxyl value, melting point, unreacted cannabinoid (wt %), cloud point (5 wt % in water), pH (5 wt % in water), ^1H NMR-structural analysis, and appearance. Comparisons between a cannabinoid and its alkoxylated form (such as CBD and e-CBD in EXAMPLE 1 below) are made in Table 1 exemplifying how the e-CBD having a (POE) value of 12 behaves differently as compared to its non-ethoxylated precursor. While these properties are strongly dependent on the number of moles of EO used in relation to the equivalents of CBD, in order to obtain a water soluble or dispersible product, the number of moles of EO in the e-CBD may be between about 1-100, more preferably between about 10-25.
By varying the molar ratio of the epoxide-to-cannabinoid starter compound to produce a product having a (POE) value between 7 and 36, the hydrophilicity of the cannabinoid may be tuned (see Table 2). The water solubility of the alkoxylated-CBD compounds (Examples 1-4) was determined at room (25° C.) and physiological (37° C.) temperatures.

pH of 5 wt % in water = test: pH of 5 wt % in water
Source text: as §1

[2] = Cloud point, 5 wt % actives in water
Source text: as §1

C=C(C)[C@@H]1CCC(C)=C[C@H]1c1c(O)cc(CCCCC)cc1O [CBD, cannabidiol]
Insoluble: Water Solubility (5 wt % in water at 37° C.) ([1]; Table 1, 5 wt % in water, 37° C.) | Water Solubility (5 wt % actives in water at 25° C.) ([1]; Table 2, 5 wt % actives in water, 25° C. (room temperature)) | Water Solubility (5 wt % actives in water at 37° C.) ([1]; Table 2, 5 wt % actives in water, 37° C. (physiological temperature)) | pH (5 wt % in water at 25° C.) (pH of 5 wt % in water) | Cloud Point (° C., 5 wt % actives in water) [2]
